Test results as given in PMC8027839 (Scientific Reports, 2021).
“Also recorded” adds a separate entry of the source. Where two headings read alike, the source gives them in different places.

Assays:
[1] = biological target: T1, SapM (Mycobacterium tuberculosis, UniProt O53361); parameters: method as in PMID 31312014; conditions: previously reported; cited from earlier work
T1 construct: made in house; host or cells: Escherichia coli C41 (DE3)
T1 sequence (O53361 44-299): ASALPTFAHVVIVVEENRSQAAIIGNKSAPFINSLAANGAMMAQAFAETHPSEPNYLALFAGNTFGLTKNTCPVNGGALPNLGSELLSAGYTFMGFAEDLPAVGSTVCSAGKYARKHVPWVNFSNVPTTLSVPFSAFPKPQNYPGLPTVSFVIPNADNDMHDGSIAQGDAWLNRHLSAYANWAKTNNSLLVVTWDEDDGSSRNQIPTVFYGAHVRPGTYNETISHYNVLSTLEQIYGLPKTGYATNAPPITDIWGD

[2] = biological target: T1, SapM; experiment: biochemical; assay type: biochemical; conditions: for remaining activity at 100 µM: 0.5 h, read-out: %SA (percentage specific activity of SapM); for inhibition at 100 µM: read-out: inhibition of SapM activity (reduction in SA)
[3] = biological target: MptpB (Mycobacterium tuberculosis, UniProt I6WXK4); experiment: biochemical; conditions: pH 6
Chain of MptpB (I6WXK4 whole entry, looked up): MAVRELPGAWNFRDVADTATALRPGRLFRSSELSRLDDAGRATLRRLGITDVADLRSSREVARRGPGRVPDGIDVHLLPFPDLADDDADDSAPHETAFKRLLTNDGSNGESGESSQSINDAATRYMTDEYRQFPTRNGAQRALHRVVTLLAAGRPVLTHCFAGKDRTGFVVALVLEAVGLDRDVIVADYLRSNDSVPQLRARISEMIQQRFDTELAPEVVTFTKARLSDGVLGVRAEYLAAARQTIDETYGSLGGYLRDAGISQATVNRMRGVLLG

[4] = biological target: MptpA (Mycobacterium tuberculosis, UniProt P9WIA1); experiment: biochemical; conditions: pH 6
Chain of MptpA (P9WIA1 whole entry): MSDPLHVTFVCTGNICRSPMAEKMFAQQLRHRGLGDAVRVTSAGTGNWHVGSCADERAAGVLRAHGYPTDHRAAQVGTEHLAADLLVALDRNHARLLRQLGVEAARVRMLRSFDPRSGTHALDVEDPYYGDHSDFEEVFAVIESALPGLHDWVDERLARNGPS

[5] = biological target: T1, SapM; experiment: Type of inhibition of SapM, Lineweaver-Burk plots; assay type: biochemical
Text: To determine the type of inhibition different inhibitor concentrations were selected to yield around 30% and 75% inhibition for each concentration of pNPP. This ensures sufficient signal to obtain accurate data while allowing a significant inhibition effect. Velocity (V) was plotted as a function of pNPP concentration and fit in a Lineweaver–Burk plot (double-reciprocal) using GraphPad Prism 8.41. All assays were done in 96-well microplates and performed in triplicate in at least two independent experiments.

[6] = Compound precipitation in enzyme assays; assay type: physicochemical; conditions: SapM dose-response assay
[7] = biological target: T2, PTP1B (Homo sapiens, UniProt P18031); experiment: hPTP1B inhibition, pNPP assay; assay type: biochemical; conditions: pNPP assay, pH 5.5; read-out: IC50 PTP1B
T2 sequence (P18031 1-435): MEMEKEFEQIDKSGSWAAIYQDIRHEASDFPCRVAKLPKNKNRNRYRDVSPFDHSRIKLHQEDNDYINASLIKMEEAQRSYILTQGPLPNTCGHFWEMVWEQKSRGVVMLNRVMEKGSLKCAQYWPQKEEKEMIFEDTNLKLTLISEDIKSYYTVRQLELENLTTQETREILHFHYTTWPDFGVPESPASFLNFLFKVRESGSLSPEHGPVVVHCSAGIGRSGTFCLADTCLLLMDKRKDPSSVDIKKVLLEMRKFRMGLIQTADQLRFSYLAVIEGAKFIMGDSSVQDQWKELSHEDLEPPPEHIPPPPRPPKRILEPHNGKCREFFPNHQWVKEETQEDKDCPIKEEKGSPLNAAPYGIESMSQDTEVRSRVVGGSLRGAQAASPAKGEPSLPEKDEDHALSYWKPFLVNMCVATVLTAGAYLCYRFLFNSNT

[8] = biological target: VHR (Homo sapiens, UniProt P51452); experiment: hVHR inhibition, pNPP assay; assay type: biochemical; conditions: pNPP assay, pH 5.5; read-out: IC50 VHR
Chain of VHR (P51452 whole entry): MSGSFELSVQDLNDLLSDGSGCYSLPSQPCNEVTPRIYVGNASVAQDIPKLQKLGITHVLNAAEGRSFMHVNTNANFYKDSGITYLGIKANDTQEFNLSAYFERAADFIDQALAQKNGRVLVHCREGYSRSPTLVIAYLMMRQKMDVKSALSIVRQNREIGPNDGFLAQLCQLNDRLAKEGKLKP

[9] = biological target: T1, SapM; experiment: Microscale thermophoresis of SapM binding
Description: Microscale thermophoresis (MST) was used to study the direct binding interaction of SapM with three compounds 1, 2 and 13. SapM was labelled with NTA-647nm dye which attaches to the 6-histidine tag. 100 nM NTA-647 was incubated with 200 nM SapM for 1-hour at 4 °C and then centrifuged at 20,000 rcf for 20 minutes at 4 °C in 20 mM HEPES, 200 mM NaCl pH 7.0. 10 mM compound was diluted to 500 μM in the same buffer. Binding checks were carried out with labelled SapM (5 nM) with and without 250 nM compound with LED power of 20% and a medium MST power in a Monolith Pico instrument and using standard capillaries. Binding analysis was performed with a doubling serial dilution from 250 nM with 16 dilutions and a constant concentration of 5 nM labelled SapM.

[10] = compounds at 100 µM, relative to pNPP DMSO control

Compound: O=C1O[C@H]([C@@H](O)CO)C(O)=C1O [L-AC, L-ascorbic acid]
- IC50 [1]: > 200 µM

Compound: CC(C)=CC[C@@H](O)C1=CC(=O)c2c(O)ccc(O)c2C1=O [Compound 21, Shikonin]
- remaining activity at 100 µM [2, 10]: 88.9 ± 4.3%

Compound: N#CC(C#N)=C(N)/C(C#N)=C/c1ccc(O)cc1 [Compound 9, Tyrphostin AG 112]
- inhibition of SapM activity (reduction in SA) ([2]; compounds at 100 µM): less than 21%
- %SA (percentage specific activity of SapM) [2, 10]: 88.7 ± 1.7%

Compound: CCCCCCCCCCCC(=O)c1c(O)c(C(=O)CCCCCCCCCCC)c(O)c(C2CC(c3ccc(O)cc3)Oc3cc(O)ccc32)c1O (centres unmarked) [Compound 3, YM-26734]
- IC50 [3]: > 100 µM
- IC50 [4]: > 100 µM
- %SA (percentage specific activity of SapM) [2]: 0%
- IC50 [2]: 19.8 ± 1.1 µM
- effect on SapM enzyme activity [2]: completely abolished the enzymatic activity

Compound: Tyrphostin AG 974 [Compound 17]
- %SA (percentage specific activity of SapM) [2, 10]: 71.9 ± 1.4%

Compound: NC(Cc1cc(O)c(O)cc1O)C(=O)O (racemic) [Compound 20, 6-Hydroxy-DL-DOPA]
- inhibition of SapM activity (reduction in SA) ([2]; compounds at 100 µM): ~ 30%
- %SA (percentage specific activity of SapM) [2, 10]: 71.7 ± 3.4%

Compound: Cc1cc(O)c2c(c1)C(=O)c1cc(O)cc(O)c1C2=O [Compound 25, Emodin]
- remaining activity at 100 µM [2, 10]: 68.6 ± 7.2%
- inhibition at 100 µM ([2]; compounds at 100 µM): ~30%

Compound: N#C/C(=C\c1ccc(O)c(O)c1)C(=O)c1ccc(O)c(O)c1 [Compound 11, Tyrphostin AG 538]
- %SA (percentage specific activity of SapM) [2, 10]: 100.2 ± 0.3%

Compound: O=[N+]([O-])c1ccc(Oc2ccc(Br)cc2)c(C(O)P(=O)(O)O)c1 (centres unmarked) [Compound 6, RWJ-60475]
- IC50 [3]: > 100 µM
- IC50 [4]: > 100 µM
- %SA (percentage specific activity of SapM) [2]: 46.6 ± 0.9%
- IC50 [2]: 41.9 ± 1.1 µM

Compound: Oc1cc(O)c2c(c1)O[C@H](c1ccc(O)c(O)c1)[C@H](O)[C@H]2c1c(O)cc(O)c2c1O[C@H](c1ccc(O)c(O)c1)[C@H](O)C2 [Compound 31, Procyanidin B2]
- remaining activity at 100 µM [2, 10]: 100 ± 14.5%

Compound: N[C@H](C(=O)O)[C@H](O)c1ccc(O)c(O)c1 [Compound 27, L-DOPS]
- remaining activity at 100 µM [2, 10]: 85.9 ± 4.2%

Compound: N#CC(C#N)=Cc1ccc([N+](=O)[O-])c(O)c1 [Compound 19, Tyrphostin AG 126]
- %SA (percentage specific activity of SapM) [2, 10]: 99.0 ± 5.5%

Compound: N#CC(C#N)=Cc1cc(O)c(O)c(O)c1 [Compound 14, Tyrphostin AG 82]
- IC50 ([3]; pNPP assay): > 100 µM
- IC50 ([4]; pNPP assay): 23.7 ± 1.1 µM
- remaining activity at 100 µM [2, 10]: 0%
- effect on SapM enzyme activity ([2]; compounds at 100 µM): completely abolished enzyme activity; also recorded: abolished enzyme activity completely
- IC50 ([2]; pNPP assay, dose-response): 14.5 ± 1 µM
- mechanism of inhibition of SapM [5]: uncompetitive inhibitors

Compound: O.O.O=c1c(O)c(-c2ccc(O)c(O)c2)oc2cc(O)cc(O)c12 [Compound 28, Quercetin dehydrate]
- effect on SapM enzyme activity ([2]; compounds at 100 µM): none or poor activity
- %SA (percentage specific activity of SapM) [2, 10]: 78.9 ± 9.2%

Compound: O=c1c(O)c(-c2cc(O)c(O)c(O)c2)oc2cc(O)cc(O)c12 [Compound 26, Myricetin]
- remaining activity at 100 µM [2, 10]: 84 ± 6.2%
- effect on SapM enzyme activity ([2]; compounds at 100 µM): none or poor activity

Compound: Oc1cc(O)c2c(c1)O[C@H](c1ccc(O)c(O)c1)[C@@H](O)C2 [Compound 33, (+)-Catechin]
- %SA (percentage specific activity of SapM) [2, 10]: 95.9 ± 12.3%

Compound: N#Cc1c2nc3ccccc3nc2n2ccc(NC(=O)c3cccs3)cc12 [Compound 4, HI-TOPK-32]
- concentration at which compound precipitates [6]: > 100 µM
- %SA (percentage specific activity of SapM) [2]: 20.5 ± 3.7%

Compound: Oc1cc(O)c2c(c1)O[C@H](c1ccc(O)c(O)c1)[C@H](O)C2 [Compound 32, (−)-Epicatechin]
- remaining activity at 100 µM [2, 10]: 97.9 ± 7.2%

Compound: CC(C)(C)c1cc(/C=C(\C#N)C(N)=S)cc(C(C)(C)C)c1O [Compound 8, Tyrphostin AG 879]
- remaining activity at 100 µM [2, 10]: 78.7 ± 6.6%
- inhibition at 100 µM ([2]; compounds at 100 µM): < 21%

Compound: O=c1c(-c2ccc(O)cc2)coc2cc(O)cc(O)c12 [Compound 24, Genistein]
- remaining activity at 100 µM [2, 10]: 84.1 ± 6.4%

Compound: N#CC(=Cc1ccc2[nH]ccc2c1)C(N)=C(C#N)C#N [Compound 18, Tyrphostin AG 370]
- %SA (percentage specific activity of SapM) [2, 10]: 94.6 ± 3.1%

Compound: O=C(O)c1cc(O)c(O)c(O)c1 [Compound 29, Gallic acid]
- IC50 ([3]; pNPP assay): > 100 µM
- IC50 ([4]; pNPP assay): > 100 µM
- remaining activity at 100 µM [2, 10]: 30.7 ± 3.6%
- inhibition at 100 µM ([2]; compounds at 100 µM): ~70%
- IC50 ([2]; pNPP assay, dose-response): 63 ± 1.5 µM

Compound: N#CC(C#N)=Cc1ccc(O)cc1 [Compound 12, Tyrphostin 8]
- %SA (percentage specific activity of SapM) [2]: 104.2 ± 4.2%
- inhibition of SapM activity (reduction in SA) ([2]; 100 µM): less than 21%

Compound: N#CC(C#N)=Cc1ccc(O)c(O)c1 [Compound 7, Tyrphostin 23]
- remaining activity at 100 µM [2, 10]: 73.5 ± 3.1%
- inhibition at 100 µM ([2]; compounds at 100 µM): 30 to 50%

Compound: N#CC(C#N)=C(N)/C(C#N)=C/c1cc(O)c(O)c(O)c1 [Compound 13, Tyrphostin AG 183]
- IC50 ([3]; pNPP assay): > 100 µM
- IC50 ([4]; pNPP assay): 16.7 ± 1 µM
- IC50 [7]: > 100 µM
- effect on SapM enzyme activity ([2]; compounds at 100 µM): completely abolished enzyme activity; also recorded: abolished enzyme activity completely
- %SA (percentage specific activity of SapM) [2, 10]: 0%
- IC50 ([2]; pNPP assay, dose-response): 8.2 ± 1 µM
- IC50 [8]: > 100 µM
- mechanism of inhibition of SapM [5]: uncompetitive inhibitors
- binding to SapM by MST [9]: confirmed
- EC50 ([9]; Bivalent fit EC50 (1), MST titration, tighter binding mode): 0.59 µM

Compound: O=c1cc(-c2ccc(O)cc2)oc2cc(O)cc(O)c12 [Compound 22, Apigenin]
- remaining activity at 100 µM [2, 10]: 103 ± 1.1%

Compound: Oc1cc(O)c2c(c1)O[C@@H](c1cc(O)c(O)c(O)c1)[C@H](O)C2 [Compound 30, (−)-Gallocatechin]
- remaining activity at 100 µM [2, 10]: 60.4 ± 6.4%
- inhibition at 100 µM ([2]; compounds at 100 µM): ~40%

Compound: N#C/C(=C\c1ccc(O)c(O)c1)C(N)=O [Compound 16, Tyrphostin AG 99]
- %SA (percentage specific activity of SapM) [2, 10]: 58.3 ± 0.6%

Compound: C[C@H](O)[C@H](O)[C@H]1CNc2[nH]c(N)nc(=O)c2N1.Cl.Cl [Compound 5, (6R)-BH4, reference compound]
- %SA (percentage specific activity of SapM) [2, 10]: 33.3 ± 0.3%
- IC50 ([2]; pNPP assay, dose-response): 73.9 ± 1.2 µM

Compound: O=c1c(-c2ccc(O)cc2)coc2cc(O)ccc12 [Compound 23, Daidzein]
- remaining activity at 100 µM [2, 10]: 108 ± 17.2%

Compound: Tyrphostin AG 114 [Compound 15]
- %SA (percentage specific activity of SapM) [2, 10]: 48.6 ± 1.1%
- IC50 ([2]; pNPP assay, dose-response): 78.4 ± 2.7 µM
